Test results as given in ChEMBL document CHEMBL4321809, “Structure-Reactivity Relationships on Substrates and Inhibitors of the Lysine Deacylase Sirtuin 2 from Schistosoma mansoni (SmSirt2)” (J Med Chem, 2019).

Tests used:
[1] = target: T1, NAD-dependent protein deacetylase (Schistosoma mansoni, UniProt T1VXA1); experiment: Ratio of Kcat for recombinant Schistosoma mansoni sirtuin 2 (21 to 322 residues) expressed in Escherichia coli BL21(DE3) cells in presence of PSDKmyr to Kcat for recombinant Schistosoma mansoni sirtuin 2 (21 to 322 residues) expressed in Escherichia coli BL21(DE3) cells in presence of PSDKac; format: ADME
T1 sequence (T1VXA1 whole entry): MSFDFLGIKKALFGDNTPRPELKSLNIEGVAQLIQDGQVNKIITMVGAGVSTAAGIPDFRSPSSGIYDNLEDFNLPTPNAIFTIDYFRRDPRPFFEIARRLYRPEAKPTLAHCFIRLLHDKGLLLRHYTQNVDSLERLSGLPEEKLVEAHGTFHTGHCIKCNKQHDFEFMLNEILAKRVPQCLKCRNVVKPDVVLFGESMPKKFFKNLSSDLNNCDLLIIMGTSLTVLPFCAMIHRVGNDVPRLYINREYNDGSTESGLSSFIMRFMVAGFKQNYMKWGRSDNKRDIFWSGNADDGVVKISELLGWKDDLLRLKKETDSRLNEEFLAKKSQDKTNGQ

[2] = target: T1, NAD-dependent protein deacetylase; experiment: Substrate activity at recombinant Schistosoma mansoni sirtuin 2 (21 to 322 residues) expressed in Escherichia coli BL21(DE3) cells assessed as ratio of Kcat to Km up to 30 mins in presence of ZMAL at saturated concentration by homogeneous fluorescence based analysis; format: ADME; details: 0.5 h
[3] = target: T2, NAD-dependent protein deacetylase (Schistosoma mansoni) (UniProt T1VXA1); experiment: Inhibition of recombinant Schistosoma mansoni sirtuin 2 (21 to 322 residues) expressed in Escherichia coli BL21(DE3) cells assessed as inhibition of substrate deacetylation at 20 uM using ZMAL as substrate relative to control
T2 sequence (whole entry): T1 sequence (T1VXA1 whole entry)

[4] = target: T3, NAD-dependent protein deacetylase sirtuin-2 (Homo sapiens, UniProt Q8IXJ6); experiment: Inhibition of human sirtuin 2 assessed as inhibition of substrate deacetylation using ZMAL as substrate
T3 sequence (Q8IXJ6 whole entry): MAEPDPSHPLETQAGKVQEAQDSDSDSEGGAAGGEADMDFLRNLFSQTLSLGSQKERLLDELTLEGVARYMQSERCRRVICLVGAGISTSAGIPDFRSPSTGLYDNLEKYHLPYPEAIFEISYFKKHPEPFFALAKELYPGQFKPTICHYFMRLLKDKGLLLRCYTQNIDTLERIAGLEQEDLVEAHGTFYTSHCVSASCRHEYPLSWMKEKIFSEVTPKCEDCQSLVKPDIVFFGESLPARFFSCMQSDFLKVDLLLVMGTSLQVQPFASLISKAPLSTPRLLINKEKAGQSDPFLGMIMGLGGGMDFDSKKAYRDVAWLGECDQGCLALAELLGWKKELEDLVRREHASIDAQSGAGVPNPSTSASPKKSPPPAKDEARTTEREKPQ

[5] = target: T3, NAD-dependent protein deacetylase sirtuin-2; experiment: Inhibition of human sirutin 2 assessed as inhibition of susbtrate demyristoylation at 20 uM using (Z)-(Myr)-Lys-AMC as substrate relative to control
[6] = target: T2, NAD-dependent protein deacetylase (Schistosoma mansoni); experiment: Inhibition of recombinant Schistosoma mansoni sirtuin 2 (21 to 322 residues) expressed in Escherichia coli BL21(DE3) cells assessed as inhibition of substrate demyristoylation at 20 uM using (Z)-(Myr)-Lys-AMC as substrate relative to control

Structure (SMILES)	Ratio [1]	Kcat/Km [2]	inhibition [3]	IC50 [4]	inhibition at 20 µM [5]	inhibition [6]
NC(=O)c1ccc[n+]([C@H]2O[C@@H](COP(=O)([O-])OP(=O)(O)OC[C@H]3O[C@@H](n4cnc5c(N)ncnc54)[C@H](O)[C@@H]3O)[C@H](O)[C@@H]2O)c1	3	9.4 ×10¹ /s/M				
O=C(NCc1cccnc1)c1ccc2c(c1)C1C3CCC(C3)C1C(c1ccccc1)N2 (stereo unspecified)			< 15%	2500 nM	42.8%	< 15%
